For experiment [1], the target named is R361A mutant NP (Influenza A virus, UniProt P15682, R361A).
Experiment [2] concerns influenza A virus. The conditions noted are these: cited from earlier work.

With `COc1ccc2cc([C@H](C)C(=O)O)ccc2c1` [Naproxen, naproxen], in experiment [1], the “stabilization of R361A monomers” value is reported as “No stabilization”.

For the compound `CCOC(=O)C1=C[C@@H](OC(CC)CC)[C@H](NC(C)=O)[C@@H](N)C1` [tamiflu], in experiment [2], the “emergence of resistant virus” value is “generated after four passages”.
